Read-outs that look alike come from different tables or passages of the source. Marks after values point to notes of the source that are not given here. [RMPγPNA-N] = PNA unit with R-MP-gamma backbone modification (N: the base)
What was measured:
[1] = test system: DNA fragment, 171 bp in length (no complementary sequence); assay: Non-denaturing gel-shift assay for non-specific (off-target) binding
Description: FIG. 6 illustrates the results of a non-denaturing gel-shift assay that was aimed at evaluating the extent of non-specific binding for an unmodified PNA oligomer (PNA6) and a oligomer containing the inventive R-MP-γPNA monomer (PNA10).
To assess the extent of off-target binding of PNA and ^R-MPγPNA, a gel-shift assay is performed. In this case, a DNA fragment, 171 bp in length, is incubated with different concentrations of PNA6 and PNA10 (Table 1) in 10 mM sodium phosphate buffer at 37° C. for 16 hr. The two oligomers contain identical nucleobase sequence but differ from another at the γ-backbone. PNA6 is unmodified, whereas PNA10 is modified at every other position with R-MP-γ side-chain. Following incubation, the samples are separated on non-denaturing polyacrylamide gel and stained with SYBR-Gold.

[2] = Water solubility, saturated concentration by UV-spectroscopy; type: physicochemical; conditions: saturated solution in water
Description: To determine whether inclusion of miniPEG in the backbone of a Formula I PNA has an effect on water solubility of the resultant oligomer, saturating concentrations of PNA6 through 10 (Table 1) were prepared in water and the concentrations of each solution was measured by UV-spectroscopy. The incorporation of a single MP unit enhances the solubility of PNA6 by nearly 2-fold (Table 5). The solubility of the oligomers is further improved, albeit to a smaller extent, with additional MP units.

[3] = test system: immobilized complementary DNA; assay: Surface plasmon resonance (SPR) hybridization kinetics; type: binding; conditions: for Kd / association rate constant ka / dissociation rate constant kd: SPR; for association rate constant ka / dissociation rate constant kd: 1:1 binding model; for dissociation rate constant kd: † values approach limits of detection
Description: FIG. 4 illustrates surface plamon resonance (SPR) sensorgrams (solid black lines) and fits (dotted lines) for hybridization of PNA probes to immobilized complementary DNA. Solutions contained 30 nM PNA. Error bars at t=420 sec illustrate standard deviations for three separate trials.
Surface plasmon resonance (SPR) analysis is used to study the hybridization kinetics of ^R-MPγPNA-DNA and ^R-MPγPNA-RNA duplexes. Briefly, SPR was performed as follows. According to one embodiment, the PNA probe was immobilized to the chip while the DNA target was captured from solution. In another embodiment, a biotinylated version of the DNA target is immobilized on a streptavidin-conjugated, carboxymethylated dextran chip at a relatively low surface density (ca. 100 response units) of DNA targets to limit mass transport effects on the association kinetics. Solutions containing 10-50 nM PNA oligomers are allowed to flow over the chip for about 420 seconds, at which point the flow is switched to a PNA-free buffer to allow net dissociation of the hybridized PNA.

complementary RNA strand = assay: UV-melting / van't Hoff analysis of PNA-RNA hybrid duplexes; type: binding
Description: (§1) FIGS. 2A-2B illustrate UV-melting profiles of PNA-DNA (FIG. 2A) and PNA-RNA (FIG. 2B) hybrid duplexes at a strand concentration of […] each in 10 mM sodium phosphate buffer at pH 7.4. While both the heating and cooling runs were performed because they both have nearly identical profiles UV-melting for only the heating runs are shown.
A similar pattern is observed for a R-MP-γPNA-RNA duplex, but the observed increase in thermal stability is lower for a R-MP-γPNA-RNA duplex as compared to a R-MP-γPNA-DNA duplex (FIG. 3B). The enhancement in thermal stability of a R-MP-γPNA-RNA duplex is only 3° C. for the first R-MP-γPNA-monomer that is incorporated into the PNA oligomer and this gain in thermal stability reduces to about 1.2° C. per R-MP-γPNA monomer for an oligomer made entirely R-MP-γPNA (PNA5). In contrast the gain in thermal stability is about 2.3° C./unit for R-MP-γPNA-DNA duplexes.
(§2) Further insights related to the contribution of miniPEG to the stability of the PNA-DNA duplex was obtained from van′t Hoff analysis. Data in Table 2 show the thermodynamic parameters associated with hybridization of PNA1 through 5 to a complementary DNA or RNA strand.

complementary DNA strand = assay: UV-melting / van't Hoff analysis of PNA-DNA hybrid duplexes; type: binding; conditions: PNA-DNA duplex, 298 K; for Kd: UV melting; for −ΔG° / −ΔH° / −ΔTS°: averages of three trials
Description: as §1
UV-melting experiments were performed to determine the effect of MP on the thermal stability of PNA oligomers following hybridization to DNA or an RNA. FIG. 3A illustrates that the incorporation of a single miniPEG side-chain stabilized a PNA-DNA duplex by 4° C. […] However, increase in thermal stability tapers off to a value of about 2.3° C. per unit for the fully-modified oligomer, that is an oligomer made up of R-MP-γPNA groups only (e.g., PNA5).
as §2

[4] = test system: DNA: 3′-[…]-5, X = A, C, G, T (SEQ ID NO: 11); conditions: PNA-DNA, cited from earlier work
[5] = test system: RNA: 3′-CGUACAXACU-5, X = A, C, G, U (SEQ ID NO: 12); conditions: PNA-RNA, cited from earlier work
[6] = ratio of dissociation and association rate constants, † values uncertain, read-out: equilibrium dissociation constant Kd
[7] = PNA-RNA duplex, 298 K, UV-melting curve fitting
[8] = range over mismatches, earlier study

Substance | Sat. conc. [2] [mM] | Kd [3, 6] [nM] | association rate constant ka [3] [M⁻¹ s⁻¹] | dissociation rate constant kd [3] | −ΔG° (complementary RNA strand; [7]) [kcal/mol] | −ΔH° (complementary RNA strand; [7]) [kcal/mol] | −ΔTS° (complementary RNA strand; [7]) [kcal/mol] | Kd (complementary DNA strand) [nM] | −ΔG° (complementary DNA strand) [kcal/mol] | −ΔH° (complementary DNA strand) [kcal/mol] | −ΔTS° (complementary DNA strand) [kcal/mol] | further results
H-ACGGGTAGAATAACAT-NH2 [PNA6] (all peptide nucleic acid (PNA); PNA oligomer with free N-terminus and C-terminal amide) | 39 |  |  |  |  |  |  |  |  |  |  | intensity of the DNA band ([1]; 10 μM (PNA/DNA ratio of 25:1) or higher): completely disappeared; intensity of the DNA band ([1]; increasing concentrations of oligomer, 37° C., 16 hr): drastic reduction
H-ACGGGTAGAATAACAT-NH2 [PNA7] (PNA; 1 R-MP-gamma unit; C-terminal amide; modified_base (8)..(8) R-MP-gamma-backbone modified nucleotide) | 76 |  |  |  |  |  |  |  |  |  |  | 
H-ACGGGTAGAATAACAT-NH2 [PNA8] (PNA; 3 R-MP-gamma units; C-terminal amide; modified_base (1)..(1) R-MP-gamma-backbone modified nucleotide; modified_base (8)..(8) R-MP-gamma-backbone modified nucleotide; modified_base (15)..(15) R-MP-gamma-backbone modified nucleotide) | 108 |  |  |  |  |  |  |  |  |  |  | 
H-ACGGGTAGAATAACAT-NH2 [PNA9] (PNA; 5 R-MP-gamma units; C-terminal amide; modified_base (3)..(3) R-MP-gamma-backbone modified nucleotide; modified_base (6)..(6) R-MP-gamma-backbone modified nucleotide; modified_base (9)..(9) R-MP-gamma-backbone modified nucleotide; modified_base (12)..(12) R-MP-gamma-backbone modified nucleotide; modified_base (15)..(15) R-MP-gamma-backbone modified nucleotide) | 350 |  |  |  |  |  |  |  |  |  |  | 
H-ACGGGTAGAATAACAT-NH2 [PNA10] (PNA; 8 R-MP-gamma units; C-terminal amide; modified_base (2)..(2) R-MP-gamma-backbone modified nucleotide; modified_base (4)..(4) R-MP-gamma-backbone modified nucleotide; modified_base (6)..(6) R-MP-gamma-backbone modified nucleotide; modified_base (8)..(8) R-MP-gamma-backbone modified nucleotide; modified_base (10)..(10) R-MP-gamma-backbone modified nucleotide; modified_base (12)..(12) R-MP-gamma-backbone modified nucleotide; modified_bas) | >500 |  |  |  |  |  |  |  |  |  |  | intensity of the DNA bands ([1]; up to 20 μM (PNA/DNA ratio of 50:1)): remained fairly constant
H-GCATGTTTGA-NH2 (all [RMPγPNA-N], methylation of C not given here; C-terminal amide) [PNA5] |  | 0.054 |  |  |  |  |  |  |  |  |  | 
H-GCATGTTTGA-NH2 [PNA1] (all peptide nucleic acid (PNA); C-terminal amide) |  |  | 470000 | 0.0013 s⁻¹ | 14.3 | 69.1 | 54.7 | 2.5 | 11.7 ± 0.24 | 65.2 ± 1.2 | 53.5 ± 1.2 | Kd ([3]; read-out: Kd): 2.8 nM; Kd (complementary RNA strand; [7]): 0.035 nM; differential Tm (ΔTm), RNA versus DNA binding (complementary RNA strand; duplex with RNA compared to duplex with DNA): 10 °C; Tm ([4]; C<>T mismatch): 31 °C; ΔTm between the perfect match and mismatch ([4]; C<>T mismatch): (−14)^† ° C.; Tm ([4]; G<>T mismatch): 31 °C; ΔTm between the perfect match and mismatch ([4]; G<>T mismatch): (−14) ° C.; Tm ([4]; T(U)<>T mismatch): 35 °C; ΔTm between the perfect match and mismatch ([4]; T(U)<>T mismatch): (−10) ° C.; Tm ([4]; X = A (A-T perfect match)): 45 °C; ΔTm, single-base mismatch (X=C, G, T) [4, 8]: −10 to −14 °C; Tm ([5]; C<>T mismatch): 37 °C; ΔTm between the perfect match and mismatch ([5]; C<>T mismatch): (−18) ° C.; Tm ([5]; G<>T mismatch): 44 °C; ΔTm between the perfect match and mismatch ([5]; G<>T mismatch): (−11) ° C.; Tm ([5]; T(U)<>T mismatch): 40 °C; ΔTm between the perfect match and mismatch ([5]; T(U)<>T mismatch): (−15) ° C.; Tm ([5]; X = A (A-T perfect match)): 55 °C; ΔTm, single-base mismatch (X=C, G, T) [5, 8]: −11 to −18 °C
H-GCATGTTTGA-NH2 [PNA3] (PNA; 3 R-MP-gamma units; C-terminal amide; modified_base (4)..(4) R-MP-gamma-backbone modified nucleotide; modified_base (6)..(6) R-MP-gamma-backbone modified nucleotide; modified_base (8)..(8) R-MP-gamma-backbone modified nucleotide) |  | 0.3 | 620000 | 0.00019 s⁻¹ | 17 | 83.7 | 66.9 | 0.051 | 14.1 ± 0.24 | 75.5 ± 2.63 | 61.2 ± 2.63 | 
H-GCATGTTTGA-NH2 [PNA4] (PNA; 5 R-MP-gamma units; C-terminal amide; modified_base (2)..(2) R-MP-gamma-backbone modified nucleotide; modified_base (4)..(4) R-MP-gamma-backbone modified nucleotide; modified_base (6)..(6) R-MP-gamma-backbone modified nucleotide; modified_base (8)..(8) R-MP-gamma-backbone modified nucleotide; modified_base (10)..(10) R-MP-gamma-backbone modified nucleotide) |  | 0.041 | 660000 | 0.3 × 10^−4 ^† s^−1 | 17.4 | 85.1 | 67.6 | 0.0035 | 15.5 ± 0.24 | 78.6 ± 3.35 | 63.3 ± 2.87 | SPR-derived Kd relative to Kd determined by UV melting experiments ([3]; Table 3 versus Table 2, DNA target): 12 fold
